Laboratory results: ChEMBL document CHEMBL5223177, “Pyrazole Ureas as Low Dose, CNS Penetrant Glucosylceramide Synthase Inhibitors for the Treatment of Parkinson's Disease” (ACS Med Chem Lett, 2023)

Tests used:
[1] = biological target: T1, Ceramide glucosyltransferase (Homo sapiens, UniProt Q16739); experiment: Inhibition of Glucosylceramide synthase (unknown origin) using C6-ceramide and UDP-glucose as substrate preincubated for 30 mins followed by substrate addition and measured after 2 hrs by UDP-Glo luminometer analysis
T1 sequence (Q16739 whole entry): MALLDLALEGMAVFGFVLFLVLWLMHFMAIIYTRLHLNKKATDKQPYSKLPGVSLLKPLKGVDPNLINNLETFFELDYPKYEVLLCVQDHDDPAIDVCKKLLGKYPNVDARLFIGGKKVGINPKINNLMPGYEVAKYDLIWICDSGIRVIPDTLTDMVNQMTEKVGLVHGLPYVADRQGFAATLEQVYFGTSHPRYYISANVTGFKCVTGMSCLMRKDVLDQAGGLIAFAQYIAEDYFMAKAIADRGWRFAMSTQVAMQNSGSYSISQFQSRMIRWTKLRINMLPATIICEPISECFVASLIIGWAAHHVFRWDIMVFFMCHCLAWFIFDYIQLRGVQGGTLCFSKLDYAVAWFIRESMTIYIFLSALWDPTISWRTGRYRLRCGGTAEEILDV

[2] = test system: rat P-gp; experiment: Substrate activity at rat P-gp assessed as efflux ratio at 1 uM; assay type: ADME; conditions: not told
[3] = test system: rat P-gp; experiment: Substrate activity at rat P-gp assessed as apparent permeability at 1 uM; assay type: ADME; conditions: not told
[4] = Lipophilicity, logD of compound by HPLC method; assay type: physicochemical
[5] = biological target: T1, Ceramide glucosyltransferase; experiment: Inhibition of GCS in human fibroblast; assay type: cell-based
[6] = biological target: T2, mouse BCRP (ABCG2) (Mus musculus, UniProt Q7TMS5); experiment: Substrate activity at mouse BCRP assessed as efflux ratio at 1 uM; assay type: ADME; conditions: not told
T2 sequence (Q7TMS5 whole entry): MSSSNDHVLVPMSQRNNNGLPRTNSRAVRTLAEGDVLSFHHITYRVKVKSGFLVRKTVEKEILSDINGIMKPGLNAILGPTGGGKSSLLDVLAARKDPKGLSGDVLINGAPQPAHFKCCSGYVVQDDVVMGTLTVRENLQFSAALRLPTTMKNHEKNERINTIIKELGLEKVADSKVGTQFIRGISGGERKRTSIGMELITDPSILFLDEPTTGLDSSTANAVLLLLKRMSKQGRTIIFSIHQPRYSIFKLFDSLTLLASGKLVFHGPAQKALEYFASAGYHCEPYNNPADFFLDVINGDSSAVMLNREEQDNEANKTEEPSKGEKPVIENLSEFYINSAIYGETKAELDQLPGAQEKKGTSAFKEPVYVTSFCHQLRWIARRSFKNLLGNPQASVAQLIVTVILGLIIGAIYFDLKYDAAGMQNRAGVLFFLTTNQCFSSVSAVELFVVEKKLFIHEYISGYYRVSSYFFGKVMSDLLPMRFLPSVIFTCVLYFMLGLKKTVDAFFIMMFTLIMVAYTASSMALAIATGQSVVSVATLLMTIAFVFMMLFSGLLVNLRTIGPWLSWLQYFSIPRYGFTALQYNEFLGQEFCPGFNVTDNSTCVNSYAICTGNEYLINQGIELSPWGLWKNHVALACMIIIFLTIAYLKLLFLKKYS

[7] = biological target: T2, mouse BCRP (ABCG2); experiment: Substrate activity at mouse BCRP assessed as apparent permeability at 1 uM; assay type: ADME; conditions: not told
[8] = biological target: T3, 5-hydroxytryptamine receptor 3A (Homo sapiens, UniProt P46098); experiment: Antagonist activity at human 5HT3A expressed in HEK293 cells incubated for 1 hr by FLIPR assay; assay type: cell-based
T3 sequence (P46098 whole entry): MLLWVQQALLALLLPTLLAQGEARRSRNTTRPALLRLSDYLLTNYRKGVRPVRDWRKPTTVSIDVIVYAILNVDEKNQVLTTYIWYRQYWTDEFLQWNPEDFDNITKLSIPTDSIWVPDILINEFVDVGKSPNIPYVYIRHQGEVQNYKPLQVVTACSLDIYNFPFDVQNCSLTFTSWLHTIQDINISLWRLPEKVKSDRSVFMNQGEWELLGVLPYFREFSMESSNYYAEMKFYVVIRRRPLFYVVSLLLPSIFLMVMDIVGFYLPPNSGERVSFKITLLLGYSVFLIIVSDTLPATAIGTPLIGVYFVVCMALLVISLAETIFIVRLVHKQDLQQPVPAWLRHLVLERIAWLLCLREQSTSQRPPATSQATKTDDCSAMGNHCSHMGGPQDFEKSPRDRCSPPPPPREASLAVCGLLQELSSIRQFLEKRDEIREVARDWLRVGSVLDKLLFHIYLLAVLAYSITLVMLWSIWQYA

[9] = species on record: Homo sapiens; experiment: Selectivity ratio of IC50 for human 5HT3A to IC50 for GCS (unknown origin)
[10] = Intrinsic clearance in rat at 5 to 10 mg/kg, po or 0.05 to 2 mg/kg, iv; assay type: ADME, organism-based; conditions: in vivo, dose 5-10 mg/kg
[11] = Mean residence time in rat at 5 to 10 mg/kg, po or 0.05 to 2 mg/kg, iv; assay type: ADME, organism-based; conditions: in vivo, dose 5-10 mg/kg
[12] = Bioavailability in rat at 5 to 10 mg/kg, po or 0.05 to 2 mg/kg, iv; assay type: ADME, organism-based; conditions: in vivo, dose 5-10 mg/kg

Row | IC50 [1] [nM] | Structure (SMILES) | efflux ratio at 1 µM [2] | Papp at 1 µM [3] [×10⁻⁶ cm/s] | logD [4] | IC50 [5] [nM] | efflux ratio at 1 µM [6] | Papp at 1 µM [7] [×10⁻⁶ cm/s] | IC50 [8] [nM] | Ratio IC50 [9] | CL [10] [mL/min/kg] | MRT [11] [h] | bioavailability [12] [%]
1 | 690 | COc1ccc(-n2nc(C(=O)N3CCCNCC3)c3c2CCOC3)cc1 | – | – | – | – | – | – | – | – | – | – | –
2 | – | O=C(N1CCN2CCC1CC2)n1nc(-n2cc(C(F)(F)F)cn2)c2c1CCC2 | 1.7 | – | – | 32 | 0.8 | 24 | 2190 | 5480 | 89 | 5.9 | 25
3 | – | O=C(N1CCN2CCC1CC2)n1nc(-n2cc(Cl)cn2)c2c1COCC2 | 4.4 | – | – | 37 | 1.4 | 32 | 585 | 96 | 120 | 1.1 | –
4 | 7400 | CCN1CCCN(C(=O)c2nn(-c3ccc(OC)cc3)c3c2COCC3)CC1 | – | – | – | – | – | – | – | – | – | – | –
5 | – | O=C(N1CCN2CCC1CC2)n1nc(-c2ccc(C(F)(F)F)cc2)c2c1COCC2 | 3.2 | – | – | 21 | 1.2 | 33 | 1590 | 647 | 610 | 3.3 | –
6 | – | O=C(N1CCN2CCC1CC2)n1nc(-n2cc(C(F)(F)F)cn2)c2c1CCOC2 | 2.7 | – | – | 32 | 1.2 | 42 | 7470 | 2070 | 39 | 3.2 | –
7 | – | CC1(C)Cc2c(c(-c3ccc(F)cc3)nn2C(=O)N2CCN3CCC2CC3)CO1 | 8.5 | – | – | 32 | 0.9 | 31 | 4210 | 470 | 180 | 2.6 | –
8 | 1000 | COc1ccc(-n2nc(C(=O)N3CCCN(C)CC3)c3c2CCOC3)cc1 | 5 | – | – | 180 | – | – | – | – | – | – | –
9 | – | COc1ccc(-c2nn(C(=O)N3CCN4CCC3CC4)c3c2CCOC3)cc1 | 4.4 | – | – | 35 | 1.4 | 32 | 338 | 164 | 3510 | 0.7 | –
10 | – | COc1ccc(-n2nc(C(=O)N3CCN4CCC3CC4)c3c2CCOC3)cc1 | – | 31 | – | – | – | – | – | – | – | – | –
11 | – | COc1ccc(-n2nc(C(=O)N3CCNCC(CO)C3)c3c2CCOC3)cc1 (racemic) | – | 6 | – | – | – | – | – | – | – | – | –
12 | > 28000 | COc1ccc(-n2nc(C(=O)N3CC(c4cnc(C)n4C)C3)c3c2CCOC3)cc1 | – | – | – | – | – | – | – | – | – | – | –
13 | – | O=C(N1CCN2CCC1CC2)n1nc(-n2cc(C(F)(F)F)cn2)c2c1[C@H]1C[C@H]1C2 | 2.2 | – | – | 33 | 0.8 | 23 | 2470 | 25000 | 85 | 8.2 | 67
14 | 12500 | COc1ccc(-n2nc(C(=O)N3CCN(C)CC(F)C3)c3c2CCOC3)cc1 (racemic) | – | – | – | – | – | – | – | – | – | – | –

Row | Structure (SMILES) | IC50 [1] [nM] | efflux ratio at 1 µM [2] | Papp at 1 µM [3] [×10⁻⁶ cm/s] | logD [4] | IC50 [5] [nM] | efflux ratio at 1 µM [6] | Papp at 1 µM [7] [×10⁻⁶ cm/s] | IC50 [8] [nM] | Ratio IC50 [9] | CL [10] [mL/min/kg] | MRT [11] [h] | bioavailability [12] [%]
15 | O=C(N1CCN2CCC1CC2)n1nc(-c2ccc(F)c(Cl)c2)c2c1COCC2 | 1 | 1.7 | 24 | 2.8 | – | – | – | – | – | – | – | –
16 | O=C(c1nn(-c2ccc(F)c(Cl)c2)c2c1COCC2)N1CCN2CCC1CC2 | 6 | 19 | 32 | 1.9 | – | – | – | – | – | – | – | –
